From patent US20250144067A1, “PERSONALIZED STARVATION THERAPY FOR CANCER” (Faeth Therapeutics, Inc., priority 2021, published 2025)
Counter-ions that a name gives are not always drawn.

Assays:
[1] = tested on: NCI-H292 lung cancer cells; experiment: FDA drug screening, complete media vs cholesterol-free media without statin (TABLE 1); assay type: cell-based, human
[2] = tested on: NCI-H292 lung cancer cells; experiment: FDA drug screening, complete media vs cholesterol-free media with simvastatin (TABLE 2); assay type: cell-based, human; conditions: for Cholesterol-free media + simvastatin (0.04 μM) / Complete Media: NCI-H292 cells
[3] = Complete minus Cholesterol-free, […]
[4] = NCI-H292 cells, FDA drug library screen, cholesterol-free media without statin
[5] = NCI-H292 cells, FDA drug library screen, complete media
[6] = FDA library drug in cholesterol-free media with simvastatin 0.04 μM
[7] = FDA library drug in complete media
[8] = complete media vs cholesterol-free media + simvastatin (0.04 μM), […]
[9] = NCI-H292 cells, cholesterol-free media without statin, FDA drug library screen
[10] = NCI-H292 cells, complete media, FDA drug library screen
[11] = FDA drug library screen, cholesterol-free media with simvastatin 0.04 μM
[12] = FDA drug library screen, complete media
[13] = complete media vs cholesterol-free media + simvastatin (0.04 μM), >0 enhanced anti-cancer activity, about 0 neutral, <0 antagonist
[14] = Complete minus Cholesterol-free, greater than 0 enhanced anti-cancer activity, about 0 neutral, below 0 antagonists
[15] = NCI-H292 cells in cholesterol-free media without statin
[16] = NCI-H292 cells in complete media
[17] = complete media minus cholesterol-free media + simvastatin, >0 enhanced anti-cancer activity, about 0 neutral, <0 antagonist
[18] = drug in cholesterol-free media with simvastatin 0.04 μM
[19] = Complete minus Cholesterol-free, >0 enhanced anti-cancer activity, about 0 neutral, <0 antagonist
[20] = NCI-H292 cells, cholesterol-free media without statin

Structure (SMILES): C/C1=C2/[N-][C@H]([C@H](CC(N)=O)[C@@]2(C)CCC(=O)NC[C@@H](C)OP(=O)([O-])O[C@H]2[C@@H](O)[C@@H](n3cnc4cc(C)c(C)cc43)O[C@@H]2CO)[C@]2(C)N=C(/C(C)=C3N=C(/C=C4N=C1[C@@H](CCC(N)=O)C\4(C)C)[C@@H](CCC(N)=O)[C@]\3(C)CC(N)=O)[C@@H](CCC(N)=O)[C@]2(C)CC(N)=O.[CH3-].[Co+3] [Methylcobalamin]
- Difference [1, 3]: −0.18
- Cholesterol-free [1, 4]: 1.021
- Complete [1, 5]: 0.8435
- Cholesterol-free media + simvastatin (0.04 μM) [2, 6]: 1.749
- Complete Media [2, 7]: 0.8589
- Difference [2, 8]: −0.89

Structure (SMILES): CC(=O)Oc1cc(C(F)(F)F)ccc1C(=O)O [Triflusal]
- Cholesterol-free [1, 9]: 1.019
- Complete [1, 10]: 1.117
- Difference ([1]; complete vs cholesterol-free media, >0 enhanced anti-cancer activity, about 0 neutral, <0 antagonist): 0.10
- Cholesterol-free media + simvastatin (0.04 μM) [2, 11]: 1.154
- Complete Media [2, 12]: 1.083
- Difference [2, 13]: −0.07

Structure (SMILES): CC(=O)[C@H]1CC[C@H]2[C@@H]3C=CC4=CC(=O)CC[C@@]4(C)[C@@H]3CC[C@]12C [Dydrogesterone]
- Difference [1, 14]: −0.68
- Cholesterol-free [1, 15]: 1.745
- Complete [1, 16]: 1.064
- Cholesterol-free media + simvastatin (0.04 μM) ([2]; cholesterol-free media with simvastatin 0.04 μM, cell growth value in FDA drug screen): 1.183
- Complete Media ([2]; complete media, cell growth value in FDA drug screen): 1.295
- Difference [2, 17]: 0.11

Structure (SMILES): O=C1c2cccc(O)c2C(=O)c2c(O)cccc21 [Danthron]
- Difference ([1]; Complete minus Cholesterol-free, greater than 0 enhanced anti-cancer activity, about 0 neutral, below 0 antagonist): −0.15
- Cholesterol-free [1, 4]: 0.9427
- Complete [1, 5]: 0.7921
- Cholesterol-free media + simvastatin (0.04 μM) [2, 18]: 1.634
- Complete Media ([2]; drug in complete media): 1.469
- Difference [2, 13]: −0.16

Structure (SMILES): CO/N=C(\C(=O)N[C@@H]1C(=O)N2C(C(=O)[O-])=C(C[N+]3(C)CCCC3)CS[C@H]12)c1csc(N)n1 [Cefepime (Dihydrochloride Monohydrate)]
- Difference [1, 14]: −0.52
- Cholesterol-free [1, 15]: 1.209
- Complete [1, 16]: 0.6874
- Cholesterol-free media + simvastatin (0.04 μM) [2, 11]: 1.15
- Complete Media [2, 12]: 1.537
- Difference [2, 17]: 0.39

Structure (SMILES): Cc1ncc(CO)c(CO)c1O.Cl [Pyridoxine (hydrochloride)]
- Difference [1, 3]: −0.61
- Cholesterol-free [1, 15]: 1.496
- Complete [1, 16]: 0.8868
- Cholesterol-free media + simvastatin (0.04 μM) [2, 6]: 1.33
- Complete Media [2, 7]: 0.9936
- Difference [2, 8]: −0.34

Structure (SMILES): O=C(O)/C=C/c1ccc(O)c(O)c1 [Caffeic acid]
- Difference [1, 19]: 0.01
- Cholesterol-free [1, 9]: 0.885
- Complete [1, 10]: 0.8915
- Cholesterol-free media + simvastatin (0.04 μM) [2, 11]: 0.9424
- Complete Media [2, 12]: 0.8032
- Difference [2, 13]: −0.14

Structure (SMILES): C#C[C@]1(O)CC[C@H]2[C@@H]3CCC4=CCCC[C@@H]4[C@H]3C(=C)C[C@@]21CC [Desogestrel]
- Difference [1, 19]: 0.06
- Cholesterol-free [1, 9]: 0.9017
- Complete [1, 10]: 0.9645
- Complete Media [2, 7]: 1.022
- Difference [2, 13]: −0.60

Structure (SMILES): Cc1nnc(SCC2=C(C(=O)O)N3C(=O)[C@@H](NC(=O)Cn4cnnn4)[C@H]3SC2)s1 [Cefazolin]
- Difference [1, 14]: −0.54
- Cholesterol-free [1, 15]: 1.603
- Complete [1, 16]: 1.065
- Cholesterol-free media + simvastatin (0.04 μM) [2, 11]: 1.197
- Complete Media [2, 12]: 1.069
- Difference [2, 13]: −0.13

Structure (SMILES): CC1(C)CC[C@]2(C(=O)O)CC[C@]3(C)C(=CC[C@@H]4[C@@]5(C)CC[C@H](O)C(C)(C)[C@@H]5CC[C@]43C)[C@@H]2C1 [Oleanolic Acid]
- Difference [1, 19]: −0.19
- Cholesterol-free [1, 20]: 1.001
- Complete ([1]; NCI-H292 cells, complete media): 0.8111
- Cholesterol-free media + simvastatin (0.04 μM) [2, 11]: 1.063
- Complete Media [2, 12]: 1.721
- Difference [2, 17]: 0.66

Structure (SMILES): COc1cc2c(cc1OC)C(=O)C(CC1CCN(Cc3ccccc3)CC1)C2 (centres unmarked) [Donepezil (Hydrochloride)]
- Difference [1, 19]: −0.23
- Cholesterol-free [1, 20]: 0.9321
- Complete ([1]; NCI-H292 cells, complete media): 0.7035
- Cholesterol-free media + simvastatin (0.04 μM) [2, 11]: 0.6694
- Complete Media [2, 12]: 0.8164
- Difference [2, 17]: 0.15

Structure (SMILES): CN1CCN(c2c(F)cc3c(=O)c(C(=O)O)cn4c3c2SCC4)CC1 [Rufloxacin hydrochloride]
- Difference [1, 19]: −0.28
- Cholesterol-free [1, 20]: 1.291
- Complete ([1]; NCI-H292 cells, complete media): 1.016
- Cholesterol-free media + simvastatin (0.04 μM) [2, 11]: 0.949
- Complete Media [2, 12]: 1.098
- Difference [2, 17]: 0.15

Structure (SMILES): Nc1cc(-c2ccncc2)c[nH]c1=O [Amrinone]
- Difference [1, 14]: −0.48
- Cholesterol-free [1, 15]: 1.339
- Complete [1, 16]: 0.861
- Cholesterol-free media + simvastatin (0.04 μM) [2, 18]: 1.157
- Complete Media ([2]; drug in complete media): 0.9441
- Difference [2, 13]: −0.21

Structure (SMILES): CCC(c1ccccc1)c1c(O)c2ccccc2oc1=O (centres unmarked) [Phenprocoumon]
- Cholesterol-free [1, 20]: 1.312
- Complete ([1]; NCI-H292 cells, complete media): 0.8729
- Difference ([1]; complete vs cholesterol-free media, greater than 0 enhanced anti-cancer activity, about 0 neutral, below 0 antagonists): −0.44
- Cholesterol-free media + simvastatin (0.04 μM) [2, 18]: 1.071
- Complete Media ([2]; drug in complete media): 0.9061
- Difference [2, 13]: −0.16
